Reference: article PMC5242521 (PLoS ONE, 2017)
Like-named read-outs stand apart in the source and are kept apart here.

Columns and labels:
P-gp = P-gp (Homo sapiens, UniProt P08183); experiment: P-gp activity: rhodamine 123 accumulation in MCF7R cells; conditions: for inhibition at 100 μM: human, pH 7.4
Experimental: The effects of pyrethroids on activity of ABC and SLC transporters were determined through measuring cellular accumulation or retention of fluorescent or radiolabeled reference substrates for transporters, in the presence or absence of reference inhibitors, as previously described. The nature of cells and reference substrates and inhibitors used for transport assays are summarized in S3 Table.
For accumulation assays (performed for all transporters, excepted BCRP), transporter-expressing cells usually cultured in 48-well plates were first incubated at 37°C with reference substrates in the absence (control) or presence of pyrethroids or reference inhibitors, in a well-defined transport assay medium, consisting of 136 mM NaCl, 5.3 mM KCl, 1.1mM KH2PO4, 0.8 mM MgSO4, 1.8 mM CaCl2, 10 mM HEPES, 11 mM D-glucose and adjusted to pH = 7.4 (excepted for MATE transporter assays, for which pH was set to 8.4). The nature of substrates and reference inhibitors and the incubation times with substrates, that varied according to the transporter, were selected in agreement with previous studies and are indicated in S3 Table. The total incubation volume with substrates was 200 μL/well. After washing twice in phosphate-buffered saline (PBS) (200 μL/well/washing), cells were lysed in distilled water (155 μL/well). An aliquot of cell lysate (5 μL) was then taken for determining cellular protein content by the Bradford method. The rest of lysate (150 μL/well) was used for measuring intracellular accumulation of reference substrates by scintillation counting or spectrofluorimetry using a SpectraMax Gemini SX spectrofluorometer (Molecular Devices, Sunnyvale, CA, USA) (excitation and emission wavelengths were 485 and 535 nm, respectively, for rhodamine 123 and fluorescein, and 355 and 460 nm, respectively, for DAPI).
Intracellular concentrations of reference substrates were initially expressed as fluorescence arbitrary units (for fluorescent dye substrates) or as moles (for radiolabeled substrates) and normalized to cellular protein content, determined by the Bradford method. They were finally used for calculating percentage of transporter activity, according to the following equations [41, 45]: %ABCtransporter activity=([Substrateref inh]-[Substratepyrethroid])×100/([Substrateref inh]-[Substratecontrol]) (1) %SLC transporter activity=([Substratepyrethroid]-[Substratref inh])×100/([Substratecontrol]-[Substrateref inh]) (2) with [Substratepyrethroid] = cellular concentration of reference substrate in the presence of pyrethroid, [Substrateref inh] = cellular concentration of reference substrate in the presence of reference inhibitor and [Substratecontrol] = cellular concentration of reference substrate in control cells not exposed to pyrethroid or reference inhibitor.
The initial tested concentration of pyrethroids was 100 μM. […] Such concentrations were calculated using GraphPad Prism software (GraphPad Software, La Jolla, CA), through nonlinear regression based on the four parameter logistic function using the following equations: […]

MATE1 = target: T1, MATE1 (Homo sapiens, UniProt Q96FL8); experiment: MATE1 activity: TEA accumulation in HEK-MATE1 cells; format: cell-based; conditions: for inhibition at 100 μM: human, pH 8.4
T1 construct: host or cells: HEK293
T1 sequence (Q96FL8 1-570): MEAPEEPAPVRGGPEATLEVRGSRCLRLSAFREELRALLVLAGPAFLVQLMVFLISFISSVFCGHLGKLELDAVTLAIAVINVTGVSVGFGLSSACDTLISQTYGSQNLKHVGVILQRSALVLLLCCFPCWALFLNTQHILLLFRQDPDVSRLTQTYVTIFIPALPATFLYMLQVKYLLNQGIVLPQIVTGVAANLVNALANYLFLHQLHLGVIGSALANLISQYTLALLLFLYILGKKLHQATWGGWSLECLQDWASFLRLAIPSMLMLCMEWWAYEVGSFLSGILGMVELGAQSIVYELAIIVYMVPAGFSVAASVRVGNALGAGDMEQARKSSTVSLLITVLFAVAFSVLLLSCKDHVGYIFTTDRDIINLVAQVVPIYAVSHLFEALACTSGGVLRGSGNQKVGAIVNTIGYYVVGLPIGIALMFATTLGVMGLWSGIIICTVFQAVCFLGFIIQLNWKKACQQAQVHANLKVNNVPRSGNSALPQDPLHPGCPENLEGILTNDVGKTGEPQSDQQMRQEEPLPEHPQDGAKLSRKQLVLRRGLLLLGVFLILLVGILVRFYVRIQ
Experimental: The initial tested concentration of pyrethroids was 100 μM.

OCT1 = target: T2, OCT1 (Homo sapiens, UniProt O15245); experiment: Trans-stimulation assay of TEA uptake in OCT1-transfected HEK293 cells; format: cell-based; conditions: pre-loading 60 min with 100 μM pyrethroid or 2 mM unlabeled TEA; HEK-OCT1 cells
T2 sequence (O15245 1-554): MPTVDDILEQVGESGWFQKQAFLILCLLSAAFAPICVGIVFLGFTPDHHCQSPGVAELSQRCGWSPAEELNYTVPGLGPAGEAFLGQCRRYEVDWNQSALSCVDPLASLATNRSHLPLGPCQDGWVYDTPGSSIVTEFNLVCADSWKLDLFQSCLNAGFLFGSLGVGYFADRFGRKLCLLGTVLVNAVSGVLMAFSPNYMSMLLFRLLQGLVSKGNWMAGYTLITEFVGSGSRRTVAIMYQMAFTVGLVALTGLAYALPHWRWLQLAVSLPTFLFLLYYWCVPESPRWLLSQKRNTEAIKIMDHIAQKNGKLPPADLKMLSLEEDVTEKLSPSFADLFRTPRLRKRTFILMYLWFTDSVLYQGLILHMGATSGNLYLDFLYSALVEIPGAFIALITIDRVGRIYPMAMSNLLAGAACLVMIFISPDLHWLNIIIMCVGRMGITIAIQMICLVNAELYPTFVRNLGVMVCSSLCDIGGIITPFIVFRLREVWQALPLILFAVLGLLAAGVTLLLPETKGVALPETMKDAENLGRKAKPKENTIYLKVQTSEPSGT
Experimental: Trans-stimulation assays were performed as previously described. Briefly, OCT1-transfected HEK293 cells were first preloaded with 2 mM unlabeled TEA or 100 μM pyrethroid for 60 min at 37°c in the transport assay medium described above. After washing twice with PBS, cells were next re-incubated in transport assay medium containing 29 μM [1-^14C]-TEA for 5 min at 37°C. After washing twice with PBS, cells were lysed in distilled water and intracellular accumulation of [1-^14C]-TEA was then determined by scintillation counting.
Intracellular accumulation of TEA was then determined by scintillation counting. […] After washing, cells were next re-incubated with 29 μM [1-^14C]-TEA for 5 min at 37°C. Intracellular accumulation of [1-^14C]-TEA was then determined by scintillation counting.

Chain of P-gp (P08183 whole entry): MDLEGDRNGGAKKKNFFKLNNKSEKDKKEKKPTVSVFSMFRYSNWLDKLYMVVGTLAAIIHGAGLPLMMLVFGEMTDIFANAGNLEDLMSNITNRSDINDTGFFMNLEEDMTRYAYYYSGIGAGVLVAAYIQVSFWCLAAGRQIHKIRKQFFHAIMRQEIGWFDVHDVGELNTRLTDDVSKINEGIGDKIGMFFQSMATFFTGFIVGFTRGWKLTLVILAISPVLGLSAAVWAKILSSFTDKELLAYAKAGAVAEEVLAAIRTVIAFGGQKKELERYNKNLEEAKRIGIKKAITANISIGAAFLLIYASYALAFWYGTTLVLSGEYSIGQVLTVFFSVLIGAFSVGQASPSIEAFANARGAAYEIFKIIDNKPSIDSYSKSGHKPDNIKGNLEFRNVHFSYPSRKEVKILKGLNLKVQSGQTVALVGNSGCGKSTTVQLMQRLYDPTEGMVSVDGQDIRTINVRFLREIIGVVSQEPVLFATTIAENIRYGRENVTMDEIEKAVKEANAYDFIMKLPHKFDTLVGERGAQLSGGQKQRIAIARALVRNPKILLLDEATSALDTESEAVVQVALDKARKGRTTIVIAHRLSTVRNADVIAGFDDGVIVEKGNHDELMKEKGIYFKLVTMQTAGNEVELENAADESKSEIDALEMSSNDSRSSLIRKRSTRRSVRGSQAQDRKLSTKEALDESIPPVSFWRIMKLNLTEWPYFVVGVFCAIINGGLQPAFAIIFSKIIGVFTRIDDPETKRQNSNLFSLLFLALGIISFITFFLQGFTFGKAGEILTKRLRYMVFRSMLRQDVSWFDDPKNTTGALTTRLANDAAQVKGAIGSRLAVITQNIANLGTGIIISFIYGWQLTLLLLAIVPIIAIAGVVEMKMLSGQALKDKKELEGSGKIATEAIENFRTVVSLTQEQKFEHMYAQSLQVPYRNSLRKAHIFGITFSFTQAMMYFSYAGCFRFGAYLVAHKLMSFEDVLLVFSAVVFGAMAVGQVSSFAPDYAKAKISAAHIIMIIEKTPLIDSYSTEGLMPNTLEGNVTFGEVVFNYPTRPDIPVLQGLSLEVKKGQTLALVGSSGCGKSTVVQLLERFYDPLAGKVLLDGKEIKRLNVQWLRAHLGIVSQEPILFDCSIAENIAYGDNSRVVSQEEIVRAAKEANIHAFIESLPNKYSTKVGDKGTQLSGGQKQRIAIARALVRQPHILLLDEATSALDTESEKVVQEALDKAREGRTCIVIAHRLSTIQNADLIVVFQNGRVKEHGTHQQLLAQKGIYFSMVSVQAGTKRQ

## CC(C)=CC1C(C(=O)OCN2C(=O)C3=C(CCCC3)C2=O)C1(C)C (centres unmarked) [tetramethrin]
P-gp
  IC50: > 100 µM
  inhibition at 100 μM: 24.5%
P-gp; pyrethroid 100 μM
  effect on P-gp activity: moderately inhibited
MATE1
  IC50: 47.5 µM
MATE1; pyrethroid 100 μM, HEK-MATE1 cells, TEA, read-out: inhibition of MATE1 activity
  inhibition at 100 μM: > 79%
OCT1
  effect of pre-loading on radiolabeled TEA uptake (trans-stimulation assay): trans-inhibition

## C=CCC1=C(C)C(OC(=O)C2C(C=C(C)C)C2(C)C)CC1=O (centres unmarked) [allethrin]
P-gp
  IC50: > 100 µM
  inhibition at 100 μM: 32.7%
MATE1
  IC50: 50.2 µM
  inhibition at 100 μM: > 79%
OCT1
  effect of pre-loading on radiolabeled TEA uptake (trans-stimulation assay): trans-inhibition
